From ChEMBL document CHEMBL1158337, “Synthesis and bioassay of a new class of heterocycles pyrrolyl oxadiazoles/thiadiazoles/triazoles” (Eur J Med Chem, 2009)
Values after ≈ are worked out from the molar mass of the structure shown.

Key:
[1] = test system: Aspergillus niger; assay: Antifungal activity against Aspergillus niger at 100 ug/disk after 48 hrs by agar disc-diffusion method; type: functional; settings: read-out: IZ
[2] = test system: Curvularia lunata; assay: Antifungal activity against Curvularia lunata at 100 ug/disk after 48 hrs by agar disc-diffusion method; type: functional; settings: read-out: IZ
[3] = test system: Fusarium solani; assay: Antifungal activity against Fusarium solani at 200 ug/disk after 48 hrs by agar disc-diffusion method; type: functional; settings: read-out: IZ
[4] = test system: Klebsiella pneumoniae; assay: Antibacterial activity against Klebsiella pneumoniae at 200 ug/disk after 24 hrs by agar disc-diffusion method; type: functional; settings: read-out: IZ
[5] = test system: Curvularia lunata; assay: Antifungal activity against Curvularia lunata at 200 ug/disk after 48 hrs by agar disc-diffusion method; type: functional; settings: read-out: IZ
[6] = test system: Staphylococcus aureus; assay: Antibacterial activity against Staphylococcus aureus at 100 ug/disk after 24 hrs by agar disc-diffusion method; type: functional; settings: read-out: IZ
[7] = test system: Bacillus subtilis; assay: Antibacterial activity against Bacillus subtilis at 100 ug/disk after 24 hrs by agar disc-diffusion method; type: functional; settings: read-out: IZ
[8] = test system: Bacillus subtilis; assay: Antibacterial activity against Bacillus subtilis at 200 ug/disk after 24 hrs by agar disc-diffusion method; type: functional; settings: read-out: IZ
[9] = test system: Klebsiella pneumoniae; assay: Antibacterial activity against Klebsiella pneumoniae at 100 ug/disk after 24 hrs by agar disc-diffusion method; type: functional; settings: read-out: IZ
[10] = test system: Fusarium solani; assay: Antifungal activity against Fusarium solani at 100 ug/disk after 48 hrs by agar disc-diffusion method; type: functional; settings: read-out: IZ
[11] = test system: Escherichia coli; assay: Antibacterial activity against Escherichia coli at 100 ug/disk after 24 hrs by agar disc-diffusion method; type: functional; settings: read-out: IZ
[12] = test system: Aspergillus niger; assay: Antifungal activity against Aspergillus niger at 200 ug/disk after 48 hrs by agar disc-diffusion method; type: functional; settings: read-out: IZ
[13] = test system: Staphylococcus aureus; assay: Antibacterial activity against Staphylococcus aureus at 200 ug/disk after 24 hrs by agar disc-diffusion method; type: functional; settings: read-out: IZ
[14] = test system: Escherichia coli; assay: Antibacterial activity against Escherichia coli at 200 ug/disk after 24 hrs by agar disc-diffusion method; type: functional; settings: read-out: IZ
[15] = Cytotoxicity against mink CCL64 cells upto 100 uM after 72 hrs by MTT assay in presence of 0.2% fetal bovine serum; type: cell-based; settings: neovison vison, ccl64, 72 h
[16] = test system: A549; assay: Cytotoxicity against human A549 cells upto 100 uM after 72 hrs by MTT assay in presence of 10% fetal bovine serum; type: functional, cell-based
[17] = test system: Staphylococcus aureus; assay: Antibacterial activity against Staphylococcus aureus after 24 hrs by microdilution susceptibility method; type: functional
[18] = test system: Bacillus subtilis; assay: Antibacterial activity against Bacillus subtilis after 24 hrs by microdilution susceptibility method; type: functional
[19] = test system: Curvularia lunata; assay: Antifungal activity against Curvularia lunata after 48 hrs by microdilution susceptibility method; type: functional
[20] = test system: Fusarium solani; assay: Antifungal activity against Fusarium solani after 48 hrs by microdilution susceptibility method; type: functional
[21] = test system: Escherichia coli; assay: Antibacterial activity against Escherichia coli after 24 hrs by microdilution susceptibility method; type: functional
[22] = test system: Aspergillus niger; assay: Antifungal activity against Aspergillus niger after 48 hrs by microdilution susceptibility method; type: functional
[23] = test system: Klebsiella pneumoniae; assay: Antibacterial activity against Klebsiella pneumoniae after […] by microdilution susceptibility method; type: functional

Compound | zone of inhibition at 100 µg/disc [1] [mm] | zone of inhibition at 100 µg/disc [2] [mm] | zone of inhibition at 200 µg/disc [3] [mm] | zone of inhibition at 200 µg/disc [4] [mm] | zone of inhibition at 200 µg/disc [5] [mm] | zone of inhibition at 100 µg/disc [6] [mm] | zone of inhibition at 100 µg/disc [7] [mm] | zone of inhibition at 200 µg/disc [8] [mm] | zone of inhibition at 100 µg/disc [9] [mm] | zone of inhibition at 100 µg/disc [10] [mm] | zone of inhibition at 100 µg/disc [11] [mm] | zone of inhibition at 200 µg/disc [12] [mm] | zone of inhibition at 200 µg/disc [13] [mm] | zone of inhibition at 200 µg/disc [14] [mm] | MIC [17] [µg/mL] | MIC [18] [µg/mL] | MIC [19] [µg/mL] | MIC [20] [µg/mL] | MIC [21] [µg/mL] | MIC [23] [µg/mL] | further results
Cc1ccc(S(=O)(=O)c2c[nH]cc2S(=O)(=O)Cc2nnc(S)o2)cc1 | 17 | 15 | 19 | 13 | 18 | 11 | 12 | 16 | 11 | 16 | 11 | 21 | 14 | 14 | – | – | – | – | – | – | –
O=S(=O)(Cc1nnc(S)o1)c1c[nH]cc1S(=O)(=O)c1ccccc1 | 15 | 17 | 20 | 16 | 21 | 12 | 11 | 13 | 13 | 18 | 14 | 20 | 15 | 17 | – | – | – | – | – | – | Activity [15]: Non-toxic; Activity [16]: Not toxic
Nn1c(S)nnc1CS(=O)(=O)c1c[nH]cc1S(=O)(=O)c1ccccc1 | 30 | 34 | 36 | 22 | 36 | 28 | 31 | 35 | 21 | 33 | 22 | 34 | 32 | 26 | 25 (≈ 62.6 µM) | 100 (≈ 250 µM) | 100 (≈ 250 µM) | 100 (≈ 250 µM) | 100 (≈ 250 µM) | 100 (≈ 250 µM) | Activity [15]: Non-toxic; Activity [16]: Not toxic; MIC [22]: 100 µg/mL (≈ 250 µM)
Nn1c(S)nnc1CS(=O)(=O)c1c[nH]cc1S(=O)(=O)c1ccc(Cl)cc1 | 34 | 38 | 40 | 28 | 41 | 32 | 34 | 38 | 26 | 35 | 23 | 37 | 35 | 25 | 12.5 (≈ 28.8 µM) | 50 (≈ 115 µM) | 12.5 (≈ 28.8 µM) | 50 (≈ 115 µM) | 50 (≈ 115 µM) | 50 (≈ 115 µM) | MIC [22]: 25 µg/mL (≈ 57.6 µM)
O=S(=O)(Cc1nnc(S)s1)c1c[nH]cc1S(=O)(=O)c1ccc(Cl)cc1 | 26 | 23 | 31 | 28 | 25 | 25 | 28 | 32 | 23 | 26 | 22 | 28 | 30 | 27 | 100 (≈ 229 µM) | 200 (≈ 459 µM) | 100 (≈ 229 µM) | 100 (≈ 229 µM) | 200 (≈ 459 µM) | 200 (≈ 459 µM) | MIC [22]: 200 µg/mL (≈ 459 µM)
O=C(O)c1cn(C2CC2)c2cc(N3CCNCC3)c(F)cc2c1=O [CIPROFLOXACIN] | – | – | – | 42 | – | 34 | 36 | 42 | 37 | – | 40 | – | 38 | 45 | – | 6.25 (≈ 18.9 µM) | – | – | – | 6.25 (≈ 18.9 µM) | –
